Measurements as given in PubChem BioAssay (NCI).
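Results reflect a 48-hour exposure of cells in 96-well plates to compound at five concentrations. TGI: total growth inhibition.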

Legend:
Assay in all cases: NCI-60 cell line screen, 48 h
786-0 renal = tested on: 786-0 renal
A498 renal = tested on: A498 renal
A549 NSCLC = tested on: A549 NSCLC
ACHN renal = tested on: ACHN renal
BT-549 breast = tested on: BT-549 breast
CAKI-1 renal = tested on: CAKI-1 renal
CCRF-CEM leukemia = tested on: CCRF-CEM leukemia
COLO 205 colon = tested on: COLO 205 colon
DU-145 prostate = tested on: DU-145 prostate
EKVX NSCLC = tested on: EKVX NSCLC
HCT-116 colon = tested on: HCT-116 colon
HL-60(TB) leukemia = tested on: HL-60(TB) leukemia
HOP-62 NSCLC = tested on: HOP-62 NSCLC
HOP-92 NSCLC = tested on: HOP-92 NSCLC
HS 578T breast = tested on: HS 578T breast
HT29 colon = tested on: HT29 colon
IGROV1 ovarian = tested on: IGROV1 ovarian
K-562 leukemia = tested on: K-562 leukemia
KM12 colon = tested on: KM12 colon
LOX IMVI melanoma = tested on: LOX IMVI melanoma
M14 melanoma = tested on: M14 melanoma
MALME-3M melanoma = tested on: MALME-3M melanoma
MCF7 breast = tested on: MCF7 breast
MDA-MB-231 breast = tested on: MDA-MB-231 breast
MDA-MB-435 = tested on: MDA-MB-435
MDA-N = tested on: MDA-N
MOLT-4 leukemia = tested on: MOLT-4 leukemia
NCI-H226 lung = tested on: NCI-H226 lung
NCI-H23 lung = tested on: NCI-H23 lung
NCI-H522 lung = tested on: NCI-H522 lung
NCI/ADR-RES ovarian = tested on: NCI/ADR-RES ovarian
OVCAR-5 ovarian = tested on: OVCAR-5 ovarian
OVCAR-8 ovarian = tested on: OVCAR-8 ovarian
PC-3 prostate = tested on: PC-3 prostate
RPMI-8226 leukemia = tested on: RPMI-8226 leukemia
RXF 393 renal = tested on: RXF 393 renal
SF-268 CNS = tested on: SF-268 CNS
SF-295 CNS = tested on: SF-295 CNS
SK-MEL-2 melanoma = tested on: SK-MEL-2 melanoma
SK-MEL-28 melanoma = tested on: SK-MEL-28 melanoma
SK-MEL-5 melanoma = tested on: SK-MEL-5 melanoma
SK-OV-3 ovarian = tested on: SK-OV-3 ovarian
SN12C renal = tested on: SN12C renal
SNB-19 CNS = tested on: SNB-19 CNS
SNB-75 CNS = tested on: SNB-75 CNS
SR leukemia = tested on: SR leukemia
SW-620 colon = tested on: SW-620 colon
T-47D breast = tested on: T-47D breast
TK-10 renal = tested on: TK-10 renal
U251 CNS = tested on: U251 CNS
UACC-257 melanoma = tested on: UACC-257 melanoma
UACC-62 melanoma = tested on: UACC-62 melanoma
UO-31 renal = tested on: UO-31 renal
HCC-2998 colon = tested on: HCC-2998 colon
HCT-15 colon = tested on: HCT-15 colon
NCI-H460 lung = tested on: NCI-H460 lung
OVCAR-3 ovarian = tested on: OVCAR-3 ovarian
OVCAR-4 ovarian = tested on: OVCAR-4 ovarian
SF-539 CNS = tested on: SF-539 CNS

COC(=O)C1=C(C(=O)OC)SC(=C2SC3=C(SC(=C4SCCS4)S3)S2)S1
TGI (786-0 renal): > 100 µM
TGI (A498 renal): > 100 µM
TGI (A549 NSCLC): > 100 µM
TGI (ACHN renal): > 100 µM
TGI (BT-549 breast): > 100 µM
TGI (CAKI-1 renal): > 100 µM
TGI (CCRF-CEM leukemia): > 100 µM
TGI (COLO 205 colon): > 100 µM
TGI (DU-145 prostate): > 100 µM
TGI (EKVX NSCLC): > 100 µM
TGI (HCT-116 colon): > 100 µM
TGI (HL-60(TB) leukemia): > 100 µM
TGI (HOP-62 NSCLC): > 100 µM
TGI (HOP-92 NSCLC): > 100 µM
TGI (HS 578T breast): > 100 µM
TGI (HT29 colon): > 100 µM
TGI (IGROV1 ovarian): > 100 µM
TGI (K-562 leukemia): > 100 µM
TGI (KM12 colon): > 100 µM
TGI (LOX IMVI melanoma): > 100 µM
TGI (M14 melanoma): > 100 µM
TGI (MALME-3M melanoma): > 100 µM
TGI (MCF7 breast): > 100 µM
TGI (MDA-MB-231 breast): > 100 µM
TGI (MDA-MB-435): > 100 µM
TGI (MDA-N): > 100 µM
TGI (MOLT-4 leukemia): > 100 µM
TGI (NCI-H226 lung): > 100 µM
TGI (NCI-H23 lung): > 100 µM
TGI (NCI-H522 lung): > 100 µM
TGI (NCI/ADR-RES ovarian): > 100 µM
TGI (OVCAR-5 ovarian): > 100 µM
TGI (OVCAR-8 ovarian): > 100 µM
TGI (PC-3 prostate): > 100 µM
TGI (RPMI-8226 leukemia): > 100 µM
TGI (RXF 393 renal): > 100 µM
TGI (SF-268 CNS): > 100 µM
TGI (SF-295 CNS): > 100 µM
TGI (SK-MEL-2 melanoma): > 100 µM
TGI (SK-MEL-28 melanoma): > 100 µM
TGI (SK-MEL-5 melanoma): > 100 µM
TGI (SK-OV-3 ovarian): > 100 µM
TGI (SN12C renal): > 100 µM
TGI (SNB-19 CNS): > 100 µM
TGI (SNB-75 CNS): 6.86 µM
TGI (SR leukemia): > 100 µM
TGI (SW-620 colon): > 100 µM
TGI (T-47D breast): > 100 µM
TGI (TK-10 renal): > 100 µM
TGI (U251 CNS): > 100 µM
TGI (UACC-257 melanoma): > 100 µM
TGI (UACC-62 melanoma): > 100 µM
TGI (UO-31 renal): > 100 µM

COc1ccc2c(c1)-c1c(c3cc(OC)ccc3n1CCN(C)C)CC2
TGI (786-0 renal): 22.7 µM
TGI (A498 renal): 24.1 µM
TGI (A549 NSCLC): 29.9 µM
TGI (ACHN renal): 28.4 µM
TGI (BT-549 breast): 26.9 µM
TGI (CAKI-1 renal): 28.8 µM
TGI (CCRF-CEM leukemia): 26.4 µM
TGI (COLO 205 colon): 25.5 µM
TGI (DU-145 prostate): 26.7 µM
TGI (HCC-2998 colon): 20.2 µM
TGI (HCT-116 colon): 24.4 µM
TGI (HCT-15 colon): 28.9 µM
TGI (HOP-62 NSCLC): 29.9 µM
TGI (HOP-92 NSCLC): 27.7 µM
TGI (HS 578T breast): 28 µM
TGI (HT29 colon): 19.1 µM
TGI (IGROV1 ovarian): 25.9 µM
TGI (K-562 leukemia): 26.5 µM
TGI (KM12 colon): 36.7 µM
TGI (M14 melanoma): 28.5 µM
TGI (MALME-3M melanoma): 31 µM
TGI (MCF7 breast): 28.9 µM
TGI (MDA-MB-231 breast): 28.2 µM
TGI (MDA-MB-435): 26.4 µM
TGI (MDA-N): 27.9 µM
TGI (MOLT-4 leukemia): 33.8 µM
TGI (NCI-H226 lung): 30 µM
TGI (NCI-H23 lung): 29.6 µM
TGI (NCI-H460 lung): 25.9 µM
TGI (NCI-H522 lung): 34.1 µM
TGI (NCI/ADR-RES ovarian): 32 µM
TGI (OVCAR-3 ovarian): 28.1 µM
TGI (OVCAR-4 ovarian): 33.1 µM
TGI (OVCAR-5 ovarian): 29.9 µM
TGI (OVCAR-8 ovarian): 32.6 µM
TGI (PC-3 prostate): 25.9 µM
TGI (RPMI-8226 leukemia): 31.2 µM
TGI (RXF 393 renal): 28.2 µM
TGI (SF-268 CNS): 37.3 µM
TGI (SF-295 CNS): 34.3 µM
TGI (SF-539 CNS): 29.8 µM
TGI (SK-MEL-2 melanoma): 29 µM
TGI (SK-MEL-28 melanoma): 30.4 µM
TGI (SK-MEL-5 melanoma): 24.9 µM
TGI (SK-OV-3 ovarian): 37.1 µM
TGI (SN12C renal): 26 µM
TGI (SNB-75 CNS): 43.4 µM
TGI (SR leukemia): 25.1 µM
TGI (SW-620 colon): 31.1 µM
TGI (T-47D breast): 41 µM
TGI (TK-10 renal): 28.9 µM
TGI (U251 CNS): 24.8 µM
TGI (UACC-257 melanoma): 29.4 µM
TGI (UACC-62 melanoma): 22.8 µM
TGI (UO-31 renal): 23.1 µM
